Consider one compound from PMC9229843, “Cancer-Related Somatic Mutations in Transmembrane Helices Alter Adenosine A1 Receptor Pharmacology” (Molecules, 2022).

The target in experiment [1] is T1, hA1AR H78L^3.23 (Homo sapiens, UniProt P30542, H78L).
T1 sequence (P30542 1-326 H78L): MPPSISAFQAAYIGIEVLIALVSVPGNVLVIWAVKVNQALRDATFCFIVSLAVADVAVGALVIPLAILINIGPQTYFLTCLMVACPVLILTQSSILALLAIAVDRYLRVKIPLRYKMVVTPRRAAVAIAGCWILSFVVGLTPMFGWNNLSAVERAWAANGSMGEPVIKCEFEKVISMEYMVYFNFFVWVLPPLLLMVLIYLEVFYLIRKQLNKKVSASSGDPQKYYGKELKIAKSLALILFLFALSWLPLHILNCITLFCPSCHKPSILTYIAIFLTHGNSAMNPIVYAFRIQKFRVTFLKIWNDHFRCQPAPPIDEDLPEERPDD
Kind of experiment: yeast liquid growth assay. In kind it is cell-based. The note with it: result in words. Here is the method:
The plasmids, pDT-PGK_hA1AR, containing either wild type or mutated hA1AR were transformed into a MMY24 S. cerevisiae strain following the lithium acetate procedure.
In order to characterize the mutant hA1ARs, liquid growth assays in 96-well plates were performed to obtain concentration–growth curves as previously described. […] The overnight cultures were then diluted to 40,000 cells/mL (OD600 ≈ 0.02) in a selective medium without uracil, leucine, and histidine (YNB-ULH). For the determination of constitutive activity, 50 μL of yeast cells and 150 μL of YNB-ULH medium containing different concentrations of 3-AT and 0.8 IU/mL ADA were then added to each well. To obtain concentration–growth curves, 2 μL of various concentrations of ligands, 50 μL of yeast cells, and 150 μL of YNB-ULH medium containing 7 mM 3-AT and 0.8 IU/mL ADA were then added to each well. After incubation at 30 °C for 35 h in a Genios plate reader (TECAN, Zürich, Switzerland) with shaking for 1 min at 300 rpm every 10 min, the optical density was measured at a wavelength of 595 nm, which represented the level of yeast cell growth.
(§1) All experimental data were analyzed by GraphPad Prism 7.0 or 8.0 (GraphPad Software Inc., San Diego, CA, USA). Data from yeast liquid growth and [^35S]GTPγS binding assays were analyzed by non-linear regression using “log (agonist) vs. response (three parameters)” or “log (inhibitor) vs. response (three parameters)” to obtain potency (EC50), inhibitory potency (IC50), and efficacy (Emax or Imax) values. The radioligand displacement curves were obtained from a statistically preferred one-site or two-site binding model. pKi values were calculated from pIC50 values using the Cheng–Prusoff equation, where KD values were obtained from the homologous competition assays from this study and calculated by non-linear regression using “one site–homologous” [62].

Another experiment deals with T2, hA1AR L134F^4.52 (Homo sapiens, UniProt P30542, L134F).
T2 sequence (P30542 1-326 L134F): T1 sequence (P30542 1-326 H78L) with L78H, L134F
The note with it: [35S]GTPγS; CPA at EC80; ratio over basal activity of wild type or mutant hA1AR. Here is the method: (§2) Transient transfection of CHO cells with wild type or mutated hA1AR plasmid constructs was performed using a polyethylenimine (PEI) method. Cells were seeded in 10-cm culture dishes to achieve 50–60% confluency 24 h prior to transfection. On the day of transfection, cells were transfected with a PEI: DNA ratio of 3:1 and a plasmid DNA amount of 10 μg/dish. Moreover, 24 h post-transfection, the medium was refreshed, and 48 h after transfection, cells were collected and membranes were prepared as previously described. Membranes were aliquoted in 250 or 100 μL and stored at −80 °C. Membrane protein concentrations were determined using the BCA method.
(§3) [^35S]GTPγS binding assays were adapted from a previously published method. […] Then, 20 µL of [^35S]GTPγS (final concentration of 0.3 nM) was added to each well, followed by 90 min of incubation at 25 °C. Incubations were terminated and filter-bound radioactivity was measured as described above.
as §1

The target of another experiment is T3, hA1AR S246T^6.47 (Homo sapiens, UniProt P30542, S246T).
T3 sequence (P30542 1-326 S246T): T1 sequence (P30542 1-326 H78L) with L78H, S246T
The note with it: [35S]GTPγS; CPA at EC80; ratio over basal activity of wild type or mutant hA1AR. The procedure: as §2, §3, §1
Background: GTPγS is a poorly hydrolysed GTP analogue; its binding reports G protein activation.

The target in experiment [2] is T1, hA1AR H78L^3.23. Particulars: [35S]GTPγS; CPA at EC80; ratio over basal activity of wild type or mutant hA1AR. The procedure: as §2, §3, §1
The target of a further experiment is T4, hA1AR W188C^5.46 (Homo sapiens, UniProt P30542, W188C).
T4 sequence (P30542 1-326 W188C): T1 sequence (P30542 1-326 H78L) with L78H, W188C
Particulars: [35S]GTPγS; CPA at EC80; ratio over basal activity of wild type or mutant hA1AR. The procedure:
as §2, §3, §1

A further experiment addresses T5, wild type hA1AR (Homo sapiens, UniProt P30542).
T5 sequence (P30542 1-326): T1 sequence (P30542 1-326 H78L) with L78H
Particulars: [35S]GTPγS; CPA at EC80; ratio over basal activity of wild type or mutant hA1AR. Here is the method: as §2, §3, §1

The target in the next experiment is T6, hA1AR G279S^7.44 (Homo sapiens, UniProt P30542, G279S).
T6 sequence (P30542 1-326 G279S): T1 sequence (P30542 1-326 H78L) with L78H, G279S
Particulars: [35S]GTPγS; CPA at EC80; ratio over basal activity of wild type or mutant hA1AR. Here is the method: as §2, §3, §1

Changes are numbered by the printed parent chain.

Consider `CCCn1c(=O)c2[nH]c(C3CCCC3)nc2n(CCC)c1=O` [DPCPX, 8-cyclopentyl-1,3-dipropylxanthine], for which the “reduction of constitutive activity by inverse agonist” value at hA1AR H78L^3.23 [1] is “not reduced”. In addition, the Imax on hA1AR L134F^4.52 stood at 0.68 ± 0.01; at hA1AR S246T^6.47, 0.70 ± 0.05; at hA1AR H78L^3.23 [2], 0.83 ± 0.03; on hA1AR W188C^5.46, 0.74 ± 0.03; on wild type hA1AR, 0.67 ± 0.05; at hA1AR G279S^7.44, 0.65 ± 0.08.
